Where two headings read alike, the source gives them in different places.
What was measured:
[1] = tested on: blood clotting (activated clotting system); assay: Clotting test, activated partial thromboplastin time (aPTT); format: biochemical; details: prolongation of 150% of the blank value as reference point; converted by heparin calibration curve
Description: The inhibition of blood clotting can be measured in a simple manner by means of the activated partial thromboplastin time aPTT. It gives information about the general inhibition of the activated clotting system. In order to decrease the incidence of hemorrhages, as low as possible an inhibition of blood clotting is desired.
Clotting test, aPTT 0.1 ml of plasma and 0.1 ml of Pathromtin^R (Behringwerke, Marburg) are incubated at 37° C. for 2 minutes and 0.1 ml of 25 mM CaCl2 solution is added. The clotting time is measured in a Schnitger & Gross coagulometer. The agent is made up for 5 individual determinations per concentration.
The prlongation of the clotting time is converted into heparin units by means of a calibration curve.

[2] = tested on: radical formation by leucocytes; assay: Test on anti-inflammatory action: inhibition of luminol-potentiated chemiluminescence in whole blood; format: cell-based, rabbit; details: Oryctolagus cuniculus, Leucocyte, 1.5 h, read-out: IC50 (50% inhibition of luminol-potentiated chemiluminescence)
[3] = tested on: fibrinolysis (plasminogen-containing fibrin plates, human standard plasma); assay: Fibrinolysis test (lysis haloes on plasminogen-containing fibrin plates); format: biochemical; details: area of lysis haloes less lysis area without substance, 24 hours at 37° C.
Source text: The formation of a clinically manifest (relatively large) thrombus can be prevented in various ways. For one, the factors which are involved in the formation of the primary thrombus, such as blood platelet aggregation or the blood clotting system, can be eliminated. On the other hand, the dissolution of the primary thrombus can be accelerated by potentiating endogeneous fibrinolysis. A potentiation of endogeneous fibrinolysis can also serve to dissolve already clinically manifest thrombi again. The fibrinolytic action of a substance is thus of great significance in the prophylaxis and therapy of thrombosis. The fibrinolytic action of the substances according to the invention was determined in the test below.
Fibrinolysis was determined by means of plasminogen-containing fibrin plates.
Petri dishes, dia. 9 cm, were prewarmed to 40° C. 3 ml of a 2% solution of fibrinogen (Behringwerke, Marburg) in water, 1 ml of a plasminogen solution, 2 CTA/ ml (Behringwerke, Marburg), 3 ml of a 1% agarose solution (Serva, Heidelberg) in 50 mM TRIS/HCl, pH 7.8 and 1 ml of a solution of 15 U/ml of thrombin (Behringwerke, Marburg) in water were pipetted into the dishes with swirling. After cooling the plates, wells of 5 mm diameter were punched out.
0.1 ml of plasma (human standard plasma, Behringwerke, Marburg), 0.8 ml of water and 0.1 ml of solution of the test substance in various concentrations were incubated for 10 minutes at 37° C. […] The precipitate was taken up in 0.1 ml of buffer (20 mM TRIS/HCl, 100 mM NaCl, 2.7 mM EDTA, pH 7.8).
After 24 hours at 37° C., the lysis haloes were planimetered. The areas of the lysis haloes less the lysis areas without addition of substance serve as a measure for the fibrinolysis-increasing activity.

[4] = tested on: bleeding time; assay: Influence on the bleeding time (rat tail); format: in vivo; details: rats, 5 minutes before bleeding, compared to control
Description: A piece of tail about 2 mm long was cut from rats. The time until bleeding had stopped was measured. The test substance in various concentrations or physiological saline solution (control) was administered to the animals 5 minutes before causing the bleeding. Groups of 20 animals were treated. The proiongalion of the bleeding time compared to the control was expressed in percent.

[5] = tested on: blood clotting (activated clotting system); details: standard heparin from the firm Pharmindustrie; cited from earlier work

Compound	heparin units (inhibition of blood clotting, aPTT) [1] [u/mg]	IC50 [2] [µg/mL]	Fibrinolysis at 2 μg/ml [3] [mm^2]	further results
O=C(NCCCCCCCCCCCCNC(=O)[C@H](OS(=O)(=O)O)[C@@H](OS(=O)(=O)O)[C@H](O[C@@H]1O[C@H](COS(=O)(=O)O)[C@H](OS(=O)(=O)O)[C@H](OS(=O)(=O)O)[C@H]1OS(=O)(=O)O)[C@@H](COS(=O)(=O)O)OS(=O)(=O)O)[C@H](OS(=O)(=O)O)[C@@H](OS(=O)(=O)O)[C@H](O[C@@H]1O[C@H](COS(=O)(=O)O)[C@H](OS(=O)(=O)O)[C@H](OS(=O)(=O)O)[C@H]1OS(=O)(=O)O)[C@@H](COS(=O)(=O)O)OS(=O)(=O)O.[Na].[Na].[Na].[Na].[Na].[Na].[Na].[Na].[Na].[Na].[Na].[Na].[Na].[Na].[Na].[Na] [Example 25, Hexadecasodium N,N'-1,12-dodecanediylbis-[2,3,5,6-tetra-O-sulfo-4-O-(2,3,4,6-tetra-O-sulfo-β-D-galactopyranosyl)-D-gluconamide]]	5.85	155	–	–
COc1ccc2c(c1)c(CC(=O)O)c(C)n2C(=O)c1ccc(Cl)cc1 [Indomethacin, reference compound]	–	–	–	IC50 ([2]; zymosan-stimulated citrated rabbit blood, maximum chemiluminescence over 90 minutes): 240 µg/mL
O=C(NCCCCCCCCCNC(=O)[C@H](OS(=O)(=O)O)[C@@H](OS(=O)(=O)O)[C@H](O[C@@H]1O[C@H](COS(=O)(=O)O)[C@H](OS(=O)(=O)O)[C@H](OS(=O)(=O)O)[C@H]1OS(=O)(=O)O)[C@@H](COS(=O)(=O)O)OS(=O)(=O)O)[C@H](OS(=O)(=O)O)[C@@H](OS(=O)(=O)O)[C@H](O[C@@H]1O[C@H](COS(=O)(=O)O)[C@H](OS(=O)(=O)O)[C@H](OS(=O)(=O)O)[C@H]1OS(=O)(=O)O)[C@@H](COS(=O)(=O)O)OS(=O)(=O)O.[Na].[Na].[Na].[Na].[Na].[Na].[Na].[Na].[Na].[Na].[Na].[Na].[Na].[Na].[Na].[Na] [Example 24, Hexadecasodium N,N'-1,9-nonanediylbis-[2,3,5,6-tetra-O-sulfo-4-O-(2,3,4,6-tetra-O-sulfo-β-D-galactopyranosyl)-D-gluconamide]]	14.1	220	17.8	–
Heparin [reference compound]	175	–	14.8	Lengthening of the bleeding time ([4]; Dose 0.25 mg/kg): 55.4%; Lengthening of the bleeding time ([4]; Dose 0.5 mg/kg): 120%; heparin activity of the standard [5]: 175 U/mg
O=C(NC1CCC(CC2CCC(NC(=O)[C@H](OS(=O)(=O)O)[C@@H](OS(=O)(=O)O)[C@H](O[C@@H]3O[C@H](COS(=O)(=O)O)[C@H](OS(=O)(=O)O)[C@H](OS(=O)(=O)O)[C@H]3OS(=O)(=O)O)[C@@H](COS(=O)(=O)O)OS(=O)(=O)O)CC2)CC1)[C@H](OS(=O)(=O)O)[C@@H](OS(=O)(=O)O)[C@H](O[C@@H]1O[C@H](COS(=O)(=O)O)[C@H](OS(=O)(=O)O)[C@H](OS(=O)(=O)O)[C@H]1OS(=O)(=O)O)[C@@H](COS(=O)(=O)O)OS(=O)(=O)O (stereo partly drawn) [Example 31, Hexadecasodium N,N'-4,4-dicylcohexylmethanediylbis-[2,3,5,6-tetra-O-sulfo-4-O-(2,3,4,6-tetra-O-sulfo-β-D-galactopyranosyl)-D-gluconamide]]	10.2	–	–	–
O=C(NCCCCCCNC(=O)[C@H](OS(=O)(=O)O)[C@@H](OS(=O)(=O)O)[C@H](O[C@@H]1O[C@H](COS(=O)(=O)O)[C@H](OS(=O)(=O)O)[C@H](OS(=O)(=O)O)[C@H]1OS(=O)(=O)O)[C@@H](COS(=O)(=O)O)OS(=O)(=O)O)[C@H](OS(=O)(=O)O)[C@@H](OS(=O)(=O)O)[C@H](O[C@@H]1O[C@H](COS(=O)(=O)O)[C@H](OS(=O)(=O)O)[C@H](OS(=O)(=O)O)[C@H]1OS(=O)(=O)O)[C@@H](COS(=O)(=O)O)OS(=O)(=O)O.[Na].[Na].[Na].[Na].[Na].[Na].[Na].[Na].[Na].[Na].[Na].[Na].[Na].[Na].[Na].[Na] [Example 23, Hexadecasodium N,N'-1,6-hexanediylbis-[2,3,5,6-tetra-O-sulfo-4-O-(2,3,4,6-tetra-O-sulfo-β-D-galactopyranosyl)-D-gluconamide]]	30.9	225	21.6	–
O=C(NCCCOCCCCOCCCNC(=O)[C@H](OS(=O)(=O)O)[C@@H](OS(=O)(=O)O)[C@H](O[C@@H]1O[C@H](COS(=O)(=O)O)[C@H](OS(=O)(=O)O)[C@H](OS(=O)(=O)O)[C@H]1OS(=O)(=O)O)[C@@H](COS(=O)(=O)O)OS(=O)(=O)O)[C@H](OS(=O)(=O)O)[C@@H](OS(=O)(=O)O)[C@H](O[C@@H]1O[C@H](COS(=O)(=O)O)[C@H](OS(=O)(=O)O)[C@H](OS(=O)(=O)O)[C@H]1OS(=O)(=O)O)[C@@H](COS(=O)(=O)O)OS(=O)(=O)O [Example 34, Hexadecasodium N,N'-1,12-(4,9-dioxadodecanediylbis)[2,3,5,6-tetra-O-sulfo-4-O-(2,3,4,6-tetra-O-sulfo-β-D-galactopyranosyl)-D-gluconamide]]	15.1	–	–	–
O=C(NCCCNC(=O)[C@H](OS(=O)(=O)O)[C@@H](OS(=O)(=O)O)[C@H](O[C@@H]1O[C@H](COS(=O)(=O)O)[C@H](OS(=O)(=O)O)[C@H](OS(=O)(=O)O)[C@H]1OS(=O)(=O)O)[C@@H](COS(=O)(=O)O)OS(=O)(=O)O)[C@H](OS(=O)(=O)O)[C@@H](OS(=O)(=O)O)[C@H](O[C@@H]1O[C@H](COS(=O)(=O)O)[C@H](OS(=O)(=O)O)[C@H](OS(=O)(=O)O)[C@H]1OS(=O)(=O)O)[C@@H](COS(=O)(=O)O)OS(=O)(=O)O.[Na].[Na].[Na].[Na].[Na].[Na].[Na].[Na].[Na].[Na].[Na].[Na].[Na].[Na].[Na].[Na] [Example 20, Hexadecasodium N,N'-1,3-propanediylbis-[2,3,5,6-tetra-O-sulfo-4-O-(2,3,4,6-tetra-O-sulfo-β-D-galactopyranosyl)-D-gluconamide]]	42.1	540	19.2	Lengthening of the bleeding time ([4]; Dose 0.5 mg/kg): 5.1%; Lengthening of the bleeding time ([4]; Dose 2 mg/kg): 35.1%

From patent publication US5008247A, “Polysulfuric acid esters of bis-aldonamides and their derivatives, process for their preparation and medicaments” (Luitpold-Werk Chemisch-pharmazeutische Fabrik GmbH & Co., priority 1987, dated 1991)
